One assay has as its target MMPs. The conditions noted are these: compared with Ilomastat; cited from earlier work.
Another assay relates to microorganisms. The conditions noted are these: tobramycin 2.5 mg/l, 15-400 µA/cm^2 during 8 h; cited from earlier work.
The test system of the next assay is Staph. aureus. In words: Zone of inhibition of extract solutions on agar culture plate. It counts as cell-based, Staphylococcus aureus. As to the method: The extract solutions were tested for antimicrobial activity by placing single 20 microliter drops of the solutions at marked locations on an agar culture plate spread with ~3×10^3 CFU (continuous lawn) of E. coli bacteria. Plates were incubated overnight at 37° C., and the diameter of the “zone of inhibition”, or “ZOI” was measured. The size of this zone corresponds to the antibacterial activity of the extract solutions.
The samples were soaked in 25 mL of 5% PG solution for 2 hours, then squeezed to remove excess solution, dried and weighed. Samples were then washed with 25 mL of distilled water for one hour, then dried and weighed. These wash solutions (G-1 and H-1) were saved for analysis. The samples were then subjected to two additional washings with 25 mL distilled water, without drying in between washings (G-2, G-3, and H-2, H-3). Samples were then dried and weighed.
A repeat of the method of Example 15 was used, except that the extraction solvent used was phosphate buffered saline (“PBS”, pH=7.4, Fisher Scientific), and samples were not dried and weighed between extractions. Samples of a microbicidal utility substrate (Sample I, initial weight=1.024 g) and SofWick (Sample J, initial weight=1.011 g) were each soaked in 20 Ml of ~4% penicillin G solution overnight, and excess solution was removed by squeezing. Samples were then washed with 25 mL distilled water for one hour with agitation, squeezed to remove excess liquid, and then subjected to five sequential extractions using 25 mL of PBS for one hour at room temperature. Samples were squeezed to remove excess solution between extractions. Extracts were tested for antibacterial activity against S. aureus according to the procedure outlined above.
The method of Example 15 was used, except that sodium pyrithione (“SP”, Acros Chemical) was used instead of penicillin. One gram samples of the microbicidal utility substrate (sample K), and untreated SofWick (sample L) were each soaked overnight in 25 ml of 0.5% SP solution. Samples were removed and squeezed to remove excess liquid. Samples were then washed in 25 mL of distilled water for one hour with agitation, then squeezed to remove excess liquid. Each sample was subjected to four sequential extractions using 25 mL of distilled water for one hour at room temperature with agitation. Samples were squeezed to remove excess solution between extraction cycles. The extracts were tested for antibacterial activity against S. aureus using the procedure described above.

The next assay has as its system E. coli bacteria. Described as above. It counts as cell-based, Escherichia coli. The conditions noted are these: 20 microliter drop. As to the method: In this example, a microbicidal utility substrate is made of a nonwoven rayon gauze material graft polymerized with diallyldimethylammonium chloride (DADAMC), and containing approximately 10 weight % poly(DADMAC)), and SofWick, a commercially available rayon gauze material manufactured by Johnson & Johnson were used as substrates. The material was prepared via modification of the SofWick substrate. Each substrate measured approximately 40 square inches. Substrates were dried at 60° C. for 30 minutes and then weighed. Both samples were trimmed to weigh exactly 1.00 grams each. A 0.5 weight % solution of Cefazolin Sodium USP (Geneva Pharmaceuticals) was prepared. Each sample was placed in a 50 mL screw-cap polypropylene centrifuge tube, along with 30 mL of the Cefazolin solution and the tubes were placed on a rotating agitator for 3 hours. The samples were removed from the solutions, then squeezed to remove excess solution, dried at 60° C. for 2 hours, then weighed. The sample weighed 1.05 grams, whereas the SofWick sample weighed 1.00 grams. […] The extraction liquid was saved for analysis.
The dried samples were placed in separate 50 mL centrifuge tubes containing 25 mL of distilled water, then placed in the rotating agitator overnight at room temperature. The samples were then removed, squeezed to remove excess solution, dried at 60° C. for 2 hours, then weighed. The sample weighed 1.03 grams, and the SofWick sample weighed 0.98 grams. […] The extraction liquid was saved for analysis This extraction procedure was repeated […] additional times to yield two series of six extraction liquids.
The extract solutions were tested for antimicrobial activity by placing single 20 microliter drops of the solutions at marked locations on an agar culture plate spread with ~3×10^3 CFU (continuous lawn) of E. coli bacteria. Plates were incubated overnight at 37° C., and the diameter of the “zone of inhibition”, or “ZOI” was measured. The size of this zone corresponds to the antibacterial activity of the extract solutions. […]

Take `CNC(=O)C(Cc1c[nH]c2ccccc12)NC(=O)C(CC(=O)O)CC(C)C` (centres unmarked) [GM1489]: the “Ki values for MMPs” value on MMPs is recorded as “almost as good as Ilomastat”.

In the case of `NC[C@H]1O[C@H](O[C@H]2[C@H](O)[C@@H](O[C@H]3O[C@H](CO)[C@@H](O)[C@H](N)[C@H]3O)[C@H](N)C[C@@H]2N)[C@H](N)C[C@@H]1O` [tobramycin], in the assay on microorganisms, the “killing of microorganisms with current and antibiotic” value is listed as “total killing of microorganisms”. For the compound `CC1(C)S[C@@H]2[C@H](NC(=O)Cc3ccccc3)C(=O)N2[C@H]1C(=O)[O-].[K+]` [Penicillin G, Penicillin G Potassium], the figures for the ZOI diameter in the assay with Staph. aureus (Penicillin G 0.01% control solution), with Staph. aureus (Penicillin G 0.1% control solution) and in the assay with Staph. aureus (Penicillin G 1.0% control solution) were 0 mm, 44 mm and 56 mm, respectively. Regarding `CC(C)C[C@H](CC(=O)NO)C(=O)N[C@@H](Cc1c[nH]c2ccccc12)C(=O)O` [C-terminal carboxylic form of Ilomastat], on MMPs, the “Ki values for MMPs” value is on record as “lower”.

For `[Na+].[O-][n+]1ccccc1[S-]` [SP, sodium pyrithione], the results for the “ZIO of SP control solution” value in the assay on Staph. aureus (0.01% SP) and in the assay on Staph. aureus (0.1% SP) were 12 mm and 26 am, respectively. `Cc1nnc(SCC2=C(C(=O)O)N3C(=O)[C@@H](NC(=O)Cn4cnnn4)[C@H]3SC2)s1` [Cefazolin, Cefazolin Sodium USP]: the ZOI diameter in the assay on E. coli bacteria (Cefazolin 0.01% control solution) is listed as 0 mm; in the assay on E. coli bacteria (Cefazolin 0.1% control solution) it was 18 mm; in the assay with E. coli bacteria (Cefazolin 1% control solution), 40 mm.

These data come from patent US20110200655A1, “Systems and methods that kill infectious agents (bacteria) without the use of a systemic anti-biotic” (priority 2010, published 2011).
